Source: patent publication US4386103A, “Dichloroamino acid derivatives useful as potent germicidal and fungicidal agents” (Merck & Co., Inc., priority 1981, dated 1983)

What was measured:
Type in all cases: cell-based
Salmonella typhimurium = assay: Contact germicidal screen, Salmonella typhimurium ATCC No. 13311
Protocol: (§1) The organisms used in the contact germicidal screen are all maintained as stock cultures on nutrient agar […] 4° C. They are transferred and biochemically diagnosed monthly. The five organisms used are: The media used are: […] Overnight cultures of the test organisms are grown in tryptose phosphate broth. After 15-16 hours, the cultures are centrifuged at […] for 15 minutes, and the supernatant replaced with fresh warm (37° C.) media. After two hours of incubation, the absorbance of the culture at 650 nm is determined and diluted with nutrient broth to 1×10^7 colony forming units per ml (using a previous determined standard curve: colony forming units/ml vs. absorbance at 650). The diluted cultures are maintained at 4°-8° C. throughout the screen. The compounds are weighed into sterile 100 ml volumetric flasks, and immediately before screening dissolved in one of the following buffers: 0.1 M NaOAc pH 4.6 or 0.1 M NaH2 PO4 pH 7.0. If solubility poses a problem, 10-30% methanol is used to effect solution. Two denaturing agents are also tested: […] Horse Serum restored with 100 ml distilled water and 10% Trition×100. When used, 2.5 ml of the denaturing agent is mixed with 2.5 ml of double strength test solution thirty minutes before the bacterial suspension is added. The screen is initiated when 0.2 ml of the bacterial suspension is added to 5.0 ml of the test solution contained in a sterile 25 ml glass stoppered flask. At intervals of 0.5, 2.5, 5.0, 10.0 and 15.0 minutes, a loopful of the inoculated test solution is subcultured into 5 ml of sterile nutrient broth and mixed with a vortex, the high dilution serving to stop the action of the compound. All of the subculture tubes are incubated at 37° C. and checked for signs of growth by turbidity at 1, 3, 5 and 7 days. The earliest subculture time at which no growth is present is considered the endpoint and is recorded as the sterilization time. An aliquot of 0.2 ml of the diluted culture is transferred to 5 ml of buffer to simulate 0.2 ml in 5 ml of test solution. (a) Purity: A loopful of the inoculated buffer is streaked onto nutrient agar to check colony morphology and lack of contaminants. (b) Viability: A loopful of the inoculated buffer is subcultured to 5 ml of nutrient broth as in the screen and incubated at 37° C. for 24 hours. (c) Dilution of the Test Solution: A loopful of the test solution is transferred to a 5 ml tube of nutrient broth, and a loopful of the inoculated buffer is transferred to the same tube of broth. […] (d) Purity of Organisms in the Test Solution: After the 15 minute subculture, a loopful of the inoculated test solution is streaked onto nutrient agar to insure that contamination has not occurred during the screen. (e) lack of Bactericidal Activity of Buffers and Other Solvents: Before a buffer or other solvent is used as a diluent, it is screened against the five organisms to insure that the buffer or solvent has no antibacterial activity itself.

Pseudamonas aeruginosa = assay: Contact germicidal screen, Pseudamonas aeruginosa ATCC No. 14502
Protocol: as §1

Candida albican = assay: Contact fungicidal screen, Candida albican; settings: 0.1M NaOAc pH 4.6
Protocol: The organisms used in the Contact Fungicidal Screen are a dermatophyte, trychophyton mentagrophytes, frequently associated with athlete's foot; a yeast, Candida albican, causative agent of thrush and vaginitis; a phycomycete, Rhizopus oryzae, commonly known as black bread mold; an ascomycete, Aspergillus fumagatis, found in chicken droppings and causing lung infections; and another dermatophyte, Microsporum canis, which causes ringworm. These organisms are maintained as stock cultures at 4° C. on agar slants of the following composition: dextrose 2%, Neopeptone (Difco) 1%, agar 2%. Fluid medium of the same nutrient composition (without agar) was used to test the viability of the organisms after exposure to the fungicide. This medium is also known as Sabouraud's medium.
The Candida albican is grown in Sabouraud's liquid medium at 25°-30° C. for three days. At the end of the incubation period the cell suspension is centrifuged at 200 G and washed with sterile physiological saline (0.85% NaCl). The density of the cell suspension is determined by counting in a hemacytometer. The suspension is stored a 4° C. until it is used, at which time it is diluted with sterile physiological saline to a density of 5×10^6 cells per ml.
The compounds are weighed into heat sterilized 100 ml volumetric flasks and immediately before screening dissolved in 0.1 M NaOAc pH 4.6 buffer (test solutions).
The Aspergillus, Candida, Microsporum and Rhizopus species are screened in a slightly different manner. Basically, the procedure for the Contact Germicidal Efficiency Screen is utilized. After the test solutions are made up, 5 ml aliquots are pipetted into heat sterilized 25 ml glass stoppered erlenmeyer flasks. The screen is initiated when 0.5 ml of the 5×10^6 cell (spore) per ml suspension is added to the flask containing 5 ml of the test solution. At intervals of 0.5, 2.5, 5.0, 10.0 and 15.0 minutes, a 4 mm loopful of the inoculated test solution is subcultured into 7 mL of sterile fluid Sabouraud's medium and mixed on a vortex, the high dilution serving to stop the action of the compound. The subculture tubes are incubated at 25°-30° C. for ten days with daily observation for mycelial growth. The earliest subculture time at which no growth is present is considered the endpoint and is recorded as the sterilization time.
To insure the viability of the culture, a 0.5 ml aliquot of the 5×10^6 cells (spores) per ml suspension is transferred to 5 ml of the pH 4.6 buffer. A loopful of the inoculated buffer is then subcultured to 7 ml of fluid Sabouraud's medium and incubated at 25°-30° C. for ten days. To insure that the dilution of the test solution into the subculture medium does stop the action, a loopful of the test solution and a loopful of the inoculated buffer are transferred into the same subculture tube. This tube is also incubated at 25°-30° C. for ten days.

[1] = 10.0+ PPM, 0.1M NaOAc pH 4.6, screened simultaneously with four other compounds
[2] = 300 PPM with 50% Horse Serum, 0.1M NaOAc pH 4.6
[3] = 300 PPM with 50% Triton X100, 0.1M NaOAc pH 4.6
[4] = 308.0 PPM, Triton X100 (10% solution):pH 4.6 buffer 1:1
[5] = 338.7 PPM, horse serum:pH 4.6 buffer 1:1
[6] = 1000 PPM with 50% Horse Serum, 0.1M NaOAc pH 4.6
[7] = 1024.0 PPM, horse serum:pH 4.6 buffer 1:1
[8] = 1070.3 PPM, 0.1M NaH2PO4 pH 7.0
[9] = 291.4 PPM, Triton X100 (10% solution):pH 4.6 buffer 1:1
[10] = 291.4 PPM, horse serum:pH 4.6 buffer 1:1
[11] = 1024.4 PPM, 0.1M NaH2PO4 pH 7.0
[12] = 1042.0 PPM, horse serum:pH 4.6 buffer 1:1

CC(C)(COC(=O)CCC(=O)O)N(Cl)Cl [(IV), 2-Dichloroamino-2-methylpropylhemisuccinate] was tested, and the “Sterilization Time” value (Salmonella typhimurium; 8.6 PPM, 0.1M NaOAc pH 4.6) was 5.0 min, the “Sterilization Time” value (Salmonella typhimurium; 9.8 PPM, 0.1M NaH2PO4 pH 7.0) was 15 min and the “Sterilization Time” value (Salmonella typhimurium; [1]) was 2.5 min. The “Sterilization Time (summary)” value (Salmonella typhimurium; 10 PPM, 0.1M NaOAc pH 4.6) was 2.5 min, the “Sterilization Time (summary)” value (Salmonella typhimurium; 100 PPM, 0.1M NaOAc pH 4.6) was 0.5 min and the “Sterilization Time” value (Salmonella typhimurium; 106.2 PPM, 0.1M NaOAc pH 4.6) was 0.5 min. The “Sterilization Time” value (Salmonella typhimurium; 149.7 PPM, 0.1M NaH2PO4 pH 7.0) was 15.0 min, the “Sterilization Time (summary)” value (Salmonella typhimurium; [2]) was 10.0 min and the “Sterilization Time (summary)” value (Salmonella typhimurium; [3]) was 0.5 min. The “Sterilization Time” value (Salmonella typhimurium; [4]) was 0.5 min, the “Sterilization Time” value (Salmonella typhimurium; [5]) was 10.0 min and the “Sterilization Time (summary)” value (Salmonella typhimurium; [6]) was 2.5 min. For the same compound, the “Sterilization Time (summary)” value (Salmonella typhimurium; 1000 PPM, 0.1M NaOAc pH 4.6) was 0.5 min, the “Sterilization Time” value (Salmonella typhimurium; 1008.0 PPM, 0.1M NaOAc pH 4.6) was 0.5 min and the “Sterilization Time” value (Salmonella typhimurium; [7]) was 2.5 min. For the same compound, the “Sterilization Time” value (Salmonella typhimurium; [8]) was 0.5 min, the “Sterilization Time” value (Pseudamonas aeruginosa; 8.6 PPM, 0.1M NaOAc pH 4.6) was 10.0 min and the “Sterilization Time” value (Pseudamonas aeruginosa; 9.8 PPM, 0.1M NaH2PO4 pH 7.0) was 15 min. For the same compound, the “Sterilization Time” value (Pseudamonas aeruginosa; [1]) was 5.0 min, the “Sterilization Time (summary)” value (Pseudamonas aeruginosa; 10 PPM, 0.1M NaOAc pH 4.6) was 5.0 min and the “Sterilization Time (summary)” value (Pseudamonas aeruginosa; 100 PPM, 0.1M NaOAc pH 4.6) was 2.5 min. The “Sterilization Time” value (Pseudamonas aeruginosa; 106.2 PPM, 0.1M NaOAc pH 4.6) was 2.5 min, the “Sterilization Time” value (Pseudamonas aeruginosa; 149.7 PPM, 0.1M NaH2PO4 pH 7.0) was 15 min and the “Sterilization Time (summary)” value (Pseudamonas aeruginosa; [2]) was 15 min. For the same compound, the “Sterilization Time (summary)” value (Pseudamonas aeruginosa; [3]) was 2.5 min, the “Sterilization Time” value (Pseudamonas aeruginosa; [4]) was 2.5 min and the “Sterilization Time” value (Pseudamonas aeruginosa; [5]) was 15 min. For the same compound, the “Sterilization Time (summary)” value (Pseudamonas aeruginosa; [6]) was 10.0 min, the “Sterilization Time (summary)” value (Pseudamonas aeruginosa; 1000 PPM, 0.1M NaOAc pH 4.6) was 0.5 min and the “Sterilization Time” value (Pseudamonas aeruginosa; 1008.0 PPM, 0.1M NaOAc pH 4.6) was 0.5 min. For the same compound, the “Sterilization Time” value (Pseudamonas aeruginosa; [7]) was 10.0 min, the “Sterilization Time” value (Pseudamonas aeruginosa; [8]) was 15 min and the “Sterilization Time” value (Candida albican; 10 PPM) was 15 min. For the same compound, the “Sterilization Time” value (Candida albican; 100 PPM) was 15 min and the “Sterilization Time” value (Candida albican; 1000 PPM) was 2.5 min.
For CC(C)(COC(=O)CCCC(=O)O)N(Cl)Cl [(V), 2-dichloramino-2-methylpropyl-hemiglutarate], the “Sterilization Time” value (Salmonella typhimurium; [1]) was 2.5 min, the “Sterilization Time” value (Salmonella typhimurium; 10.0 PPM, 0.1M NaH2PO4 pH 7.0) was 15 min and the “Sterilization Time (summary)” value (Salmonella typhimurium; 10 PPM, 0.1M NaOAc pH 4.6) was 2.5 min. For the same compound, the “Sterilization Time” value (Salmonella typhimurium; 10.0 PPM, 0.1M NaOAc pH 4.6) was 5.0 min, the “Sterilization Time” value (Salmonella typhimurium; 99.1 PPM, 0.1M NaOAc pH 4.6) was 0.5 min and the “Sterilization Time (summary)” value (Salmonella typhimurium; 100 PPM, 0.1M NaOAc pH 4.6) was 0.5 min. The “Sterilization Time” value (Salmonella typhimurium; 106.7 PPM, 0.1M NaH2PO4 pH 7.0) was 15 min, the “Sterilization Time” value (Salmonella typhimurium; [9]) was 0.5 min and the “Sterilization Time” value (Salmonella typhimurium; [10]) was 10.0 min. For the same compound, the “Sterilization Time (summary)” value (Salmonella typhimurium; [2]) was 10.0 min, the “Sterilization Time (summary)” value (Salmonella typhimurium; [3]) was 0.5 min and the “Sterilization Time” value (Salmonella typhimurium; 911.8 PPM, 0.1M NaOAc pH 4.6) was 0.5 min. The “Sterilization Time (summary)” value (Salmonella typhimurium; [6]) was 2.5 min, the “Sterilization Time (summary)” value (Salmonella typhimurium; 1000 PPM, 0.1M NaOAc pH 4.6) was 0.5 min and the “Sterilization Time” value (Salmonella typhimurium; [11]) was 5.0 min. For the same compound, the “Sterilization Time” value (Salmonella typhimurium; [12]) was 2.5 min, the “Sterilization Time” value (Pseudamonas aeruginosa; [1]) was 5.0 min and the “Sterilization Time” value (Pseudamonas aeruginosa; 10.0 PPM, 0.1M NaH2PO4 pH 7.0) was 15 min. For the same compound, the “Sterilization Time (summary)” value (Pseudamonas aeruginosa; 10 PPM, 0.1M NaOAc pH 4.6) was 5.0 min, the “Sterilization Time” value (Pseudamonas aeruginosa; 10.0 PPM, 0.1M NaOAc pH 4.6) was 10.0 min and the “Sterilization Time” value (Pseudamonas aeruginosa; 99.1 PPM, 0.1M NaOAc pH 4.6) was 2.5 min. The “Sterilization Time (summary)” value (Pseudamonas aeruginosa; 100 PPM, 0.1M NaOAc pH 4.6) was 2.5 min, the “Sterilization Time” value (Pseudamonas aeruginosa; 106.7 PPM, 0.1M NaH2PO4 pH 7.0) was 15 min and the “Sterilization Time” value (Pseudamonas aeruginosa; [9]) was 2.5 min. The “Sterilization Time” value (Pseudamonas aeruginosa; [10]) was 15 min, the “Sterilization Time (summary)” value (Pseudamonas aeruginosa; [2]) was 15 min and the “Sterilization Time (summary)” value (Pseudamonas aeruginosa; [3]) was 2.5 min. The “Sterilization Time” value (Pseudamonas aeruginosa; 911.8 PPM, 0.1M NaOAc pH 4.6) was 0.5 min, the “Sterilization Time (summary)” value (Pseudamonas aeruginosa; [6]) was 10.0 min and the “Sterilization Time (summary)” value (Pseudamonas aeruginosa; 1000 PPM, 0.1M NaOAc pH 4.6) was 0.5 min. The “Sterilization Time” value (Pseudamonas aeruginosa; [11]) was 15 min, the “Sterilization Time” value (Pseudamonas aeruginosa; [12]) was 10.0 min and the “Sterilization Time” value (Candida albican; 10 PPM) was 15 min. For the same compound, the “Sterilization Time” value (Candida albican; 100 PPM) was 15 min and the “Sterilization Time” value (Candida albican; 1000 PPM) was 0.5 min.
